Series [1] can be described thus: in vivo animal feeding study for caloric availability (body weight gain). Further details: species or system male Sprague-Dawley rats. The following applies: rats, diet of 50% fort and 21% test compound, 14 days. The source says:
This example illustrates how the novel fat mimetics of this invention are screened for caloric availability by a carefully controlled in vivo animal feeding study.
An experimental relationship between total calories ingested and animal body weight gain is established by monitoring the body weight gain associated with consumption of a nutritionally balanced diet containing varying concentrations of a reference substance such as corn oil which has a known caloric availability. Correlations between total calories ingested and body weight gain are excellent (r=0.99).
Caloric availability of an unknown substance is evaluated by substituting a specific weight of the unknown substance for the reference substance and observing the body weight gain. The gain in body weight is equated to a total number of calories using the correlation previously established for the reference data. The estimated number of calories ingested are divided by the weight of unknown substance to give the apparent calories per gram for the unknown substance. Generally speaking, in these bioavailability studies, the degree of perianal pelt soiling correlates with reduced bioavailability.
The test animals are six-week-old male Sprague-Dawley rats obtained from the Portage, Mich. facility of the Charles River Laboratories, Inc. After acclimation for 15 days, the test duration is 14 days. […]

Series [2] concerns porcine pancreatic lipase. Put plainly: in vitro digestibility: hydrolysis by pancreatic lipase (TLC densitometry). In kind it is in vitro ADME. The following applies: in 10 minutes, triglyceride control, 37° C., pH 7.1. As to the method: This example outlines the procedure for estimating the in vitro digestibility of the synthetic fat mimetics of this invention.
1. Buffer: A pH 7.1 phosphate buffer is prepared by dissolving 6.8 g. KH2 PO4 in 1 L. of millipore filtered water (to yield 0.05 M phosphate). Fifty mg. Ca(NO3)2 and 5.0 g. cholic acid (Na salt, an ox bile isolate from Sigma) are added to give 300 microM Ca^++ and 0.5 % cholic acid in 0.05 M phosphate. The pH is adjusted to approximately 7.1 with solid NaOH. Several drops of Baker "Resi-analyzed" toluene are added to prevent bacterial growth during storage at 3-5° C.
2. Lipase: About 15 mg./mL commercial porcine pancreatic lipase from U.S. Biochemical Corporation is dissolved in buffer.
3. Substrates and Standards: A 1.0 mL volumetric flask is charged with an amount of lipid substrate (test substance or standard) calculated to give a concentration of 200 nanomoles per microliter in Baker "Resi-analyzed" toluene. (The proper concentration may be approximated by […] the molecular weight of the lipid in question, dividing by 10, and diluting to the mark; this yields about 200 nanomoles per microliter.) This preparation affords the substrate to be used in the hydrolysis reactions. […]

Consider `CCCCCCCC/C=C\CCCCCCCC(=O)OCC(C)(COC(=O)CCCCCCC/C=C\CCCCCCCC)COC(=O)CCCCCCC/C=C\CCCCCCCC` [Example 1, 1,1,1-Tris-hydroxymethylethane trioleate], for which, in series [1], the “caloric availability (kcal/gram upon being metabolized)” value is “about 3.3 kcal/gram”.

Take `CCCCCCCC/C=C\CCCCCCCC(=O)OCC(COC(=O)CCCCCCC/C=C\CCCCCCCC)OC(=O)CCCCCCC/C=C\CCCCCCCC` [triolein]: in series [2], the “hydrolysis by pancreatic lipase” value was “substantially hydrolyzed”.

The record behind these values is patent US4927659A, “Tris-hydroxymethyl lower alkane esters as fat mimetics” (Nabisco Brands, Inc., priority 1989, dated 1990).
